# From patent US9139502B2, “Use of an urushiol compound in preparation of pharmaceutical compositions for inhibiting Smad3 phosphorylation” (Southern Hospital, Southern Medical University, priority 2013, dated 2015)
# Key:
# C57BL/6J mice = assay: Single-dose toxicity of GQ-5 in mice; type: in vivo; settings: single intraperitoneal dose up to 800 mg/kg, 7-day observation
# Procedure: To test the toxicity of GQ-5, 20 C57BL/6J little male mice which are […], healthy and clean, their weights are between 20 and 22 gram. Antisepsis the feed and water, before and in the layoff period of the test, all the mice should be feed under the normal feeding condition.
# Dissolve GQ-5 in 0.5% propylene glycol, this liquor is given to little mice by intraperitoneal injection. The dosage of GQ-5 was 10, 40, 200, and 800 mg/kg body weight of mice. After administration, they are observed for 7 days.
# Smad2 phosphorylation = assay: Western blot of TGF-β1-induced Smad2 phosphorylation in vitro; type: cell-based, rat
# Procedure: NRK52E and NRK49F cells were cultured in DMEM-Ham's medium supplemented with 10% fetal bovine serum. The cells reached at approximately 50% confluence were used for in vitro experiments. Cells were serum-starved for 12 h, and randomized into 6 groups: (1) Controls; (2) GQ-5 only; (3) TGF-β1 only; (4) TGF-β1+GQ-5 0.1 μM; (5) TGF-β1+GQ-5 0.5 μM; (6) TGF-β1+GQ-5 2.5 μM.
# (2) GQ-5 only: pre-treated with GQ-5 (2.5 μM) for 1 h, followed with DMEM for 1 h
# (3) TGF-β1 only: pre-treated with DMSO (0.1%) for 1 h, followed with TGF-β1 (10 ng/ml) for 1 h
# (4) TGF-β1+GQ-5 0.1 μM: pre-treated with GQ-5 (0.1 μM) for 1 h, followed with TGF-β1 (10 ng/ml) for 1 h
# (5) TGF-β1+GQ-5 0.5 μM: pre-treated with GQ-5 (0.5 μM) for 1 h, followed with TGF-β1 (10 ng/ml) for 1 h
# (6) TGF-β1+GQ-5 2.5 μM: pre-treated with GQ-5 (2.5 μM) for 1 h, followed with TGF-β1 (10 ng/ml) for 1 h.
# GQ-5 was dissolved in DMSO. Cells were treated as described. Cell lysates were immunoblotted with antibodies against phospho-Smad3, Smad3, phospho-Smad2, Smad2.
# NRK52E cells were cultured in DMEM-Ham's medium supplemented with 10% fetal bovine serum. The cells reached at approximately 50% confluence were used for in vitro experiments. Cells were serum-starved for 12 h, and randomized into 8 groups: (1) Controls; (2) GQ-5 only; (3) TGF-β1 0.5 h; (4) TGF-β1 0.5 h+GQ-5; (5) TGF-β1 1.0 h; (6) TGF-β1 1.0 h+GQ-5; (7) TGF-β1 3.0 h; (8) TGF-β1 3.0 h+GQ-5; […]
# [1] = tested on: Smad3-dependent collagen I promoter; assay: Luciferase reporter assay of Smad3-dependent collagen I promoter activity; type: cell-based, rat; settings: NRK52E cells transfected with p(GAGA)12-luc, GQ-5 0.1, 0.5, 2.5 μM pre-treated 1 h, TGF-β1 10 ng/ml 24 h
compound,measurement,setting,value
"CCCCCC/C=C\CCCCCCCc1cccc(O)c1O [GQ-5, 3-[(Z)-pentadec-8-enyl]catechol]",death or adverse event,C57BL/6J mice,did not die or developed any adverse event
same,TGF-β1-induced Smad2 phosphorylation,"Smad2 phosphorylation; NRK52E and NRK49F cells, GQ-5 0.1, 0.5, 2.5 μM pre-treated 1 h, TGF-β1 10 ng/ml 1 h",did not affect
same,"TGF-β1-induced Smad2 phosphorylation, time course","Smad2 phosphorylation; NRK52E cells, GQ-5 2.5 μM pre-treated 1 h, TGF-β1 10 ng/ml 0.5, 1.0, 3.0 h",did not affect
same,TGF-β1-induced Smad3-dependent collagen I promoter activity,[1],significantly inhibited TGF-β1-induced Smad3-dependent collagen I promoter activity in a dose-dependent manner
